Assays:
Type in all cases: in vivo
[1] = test system: barnyardgrass (Echinochloa crus-galli); assay: Test A preemergence, barnyardgrass; settings: 0 to 100 scale, 0 no effect, 100 complete control
Source text: (§1) Seeds of plant species selected from barnyardgrass (Echinochloa crus-galli), crabgrass, large (large crabgrass, Digitaria sanguinalis), kochia (Kochia scoparia), ragweed (common ragweed, Ambrosia elatior), morningglory (Ipomoea spp.), velvetleaf (Abutilon theophrasti), ryegrass, Italian (Italian ryegrass, Lolium multiflorum), foxtail, giant (giant foxtail, Setaria faberii), wheat (Triticum aestivum), corn (Zea mays), and pigweed (Amaranthus retroflexus), were planted into a blend of loam soil and sand and treated preemergence with a directed soil spray using test chemicals formulated in a non-phytotoxic solvent mixture which included a surfactant. At the same time, plants selected from these crop and weed species and also blackgrass (Alopecurus myosuroides), and galium (catchweed bedstraw, Galium aparine), were planted in pots containing the same blend of loam soil and sand and treated with postemergence applications of test chemicals formulated in the same manner. Plants ranged in height from 2 to 10 cm and were in the one- to two-leaf stage for the postemergence treatment. Treated plants and untreated controls were maintained in a greenhouse for approximately 10 d, after which time all treated plants were compared to untreated controls and visually evaluated for injury. Plant response ratings, summarized in Table A, are based on a 0 to 100 scale where 0 is no effect and 100 is complete control. A dash (-) response means no test result.

[2] = test system: kochia (Kochia scoparia); assay: Test A preemergence, kochia; settings: 0 to 100 scale, 0 no effect, 100 complete control
Source text: as §1

[3] = test system: ragweed (common ragweed, Ambrosia elatior); assay: Test A preemergence, ragweed; settings: 0 to 100 scale, 0 no effect, 100 complete control
Source text: as §1

[4] = test system: ryegrass, Italian (Italian ryegrass, Lolium multiflorum); assay: Test A preemergence, ryegrass, Italian; settings: 0 to 100 scale, 0 no effect, 100 complete control
Source text: as §1

[5] = test system: foxtail, giant (giant foxtail, Setaria faberii); assay: Test A preemergence, foxtail, giant; settings: 0 to 100 scale, 0 no effect, 100 complete control
Source text: as §1

[6] = test system: pigweed (Amaranthus retroflexus); assay: Test A preemergence, pigweed; settings: 0 to 100 scale, 0 no effect, 100 complete control
Source text: as §1

[7] = test system: barnyardgrass (Echinochloa crus-galli); assay: Test A postemergence, barnyardgrass; settings: 0 to 100 scale, 0 no effect, 100 complete control
Source text: as §1

[8] = test system: kochia (Kochia scoparia); assay: Test A postemergence, kochia; settings: 0 to 100 scale, 0 no effect, 100 complete control
Source text: as §1

[9] = test system: ragweed (common ragweed, Ambrosia elatior); assay: Test A postemergence, ragweed; settings: 0 to 100 scale, 0 no effect, 100 complete control
Source text: as §1

[10] = test system: ryegrass, Italian (Italian ryegrass, Lolium multiflorum); assay: Test A postemergence, ryegrass, Italian; settings: 0 to 100 scale, 0 no effect, 100 complete control
Source text: as §1

[11] = test system: foxtail, giant (giant foxtail, Setaria faberii); assay: Test A postemergence, foxtail, giant; settings: 0 to 100 scale, 0 no effect, 100 complete control
Source text: as §1

[12] = test system: wheat (Triticum aestivum); assay: Test A postemergence, wheat; settings: 0 to 100 scale, 0 no effect, 100 complete control
Source text: as §1

[13] = test system: corn (Zea mays); assay: Test A postemergence, corn; settings: 0 to 100 scale, 0 no effect, 100 complete control
Source text: as §1

[14] = test system: pigweed (Amaranthus retroflexus); assay: Test A postemergence, pigweed; settings: 0 to 100 scale, 0 no effect, 100 complete control
Source text: as §1

[15] = test system: blackgrass (Alopecurus myosuroides); assay: Test A postemergence, blackgrass; settings: 0 to 100 scale, 0 no effect, 100 complete control
Source text: as §1

[16] = test system: galium (catchweed bedstraw, Galium aparine); assay: Test A postemergence, galium; settings: 0 to 100 scale, 0 no effect, 100 complete control
Source text: as §1

[17] = test system: barnyardgrass (Echinochloa crus-galli); assay: Test B flooded paddy test, barnyardgrass; settings: Flood, 500 g ai/ha; scale 0 to 100 (0 no effect, 100 complete control); 13 to 15 d
Procedure: (§2) Plant species in the flooded paddy test selected from rice (Oryza sativa), sedge, umbrella (small-flower umbrella sedge, Cyperus difformis), ducksalad (Heteranthera limosa), and barnyardgrass (Echinochloa crus-galli) were grown to the 2-leaf stage for testing. At time of treatment, test pots were flooded to 3 cm above the soil surface, treated by application of test compounds directly to the paddy water, and then maintained at that water depth for the duration of the test. Treated plants and controls were maintained in a greenhouse for 13 to 15 d, after which time all species were compared to controls and visually evaluated. Plant response ratings, summarized in Table B, are based on a scale of 0 to 100 where 0 is no effect and 100 is complete control. A dash (-) response means no test result.

[18] = test system: ducksalad (Heteranthera limosa); assay: Test B flooded paddy test, ducksalad; settings: Flood, 500 g ai/ha; scale 0 to 100 (0 no effect, 100 complete control); 13 to 15 d
Procedure: as §2

[19] = test system: rice (Oryza sativa); assay: Test B flooded paddy test, rice; settings: Flood, 500 g ai/ha; scale 0 to 100 (0 no effect, 100 complete control); 13 to 15 d
Procedure: as §2

[20] = test system: sedge, umbrella (small-flower umbrella sedge, Cyperus difformis); assay: Test B flooded paddy test, sedge, umbrella; settings: Flood, 500 g ai/ha; scale 0 to 100 (0 no effect, 100 complete control); 13 to 15 d
Procedure: as §2

O=C1NCC(c2ccc(F)c(F)c2)N1C(=O)Nc1ccccc1F (stereo not drawn) [Compound 8]
Plant response rating, Barnyardgrass ([1]; 125 g ai/ha): 0
Plant response rating, Barnyardgrass ([1]; 500 g ai/ha): 0
Plant response rating, Kochia ([2]; 125 g ai/ha): 0
Plant response rating, Kochia ([2]; 500 g ai/ha): 0
Plant response rating, Ragweed ([3]; 125 g ai/ha): 0
Plant response rating, Ragweed ([3]; 500 g ai/ha): 0
Plant response rating, Ryegrass, Italian ([4]; 125 g ai/ha): 0
Plant response rating, Ryegrass, Italian ([4]; 500 g ai/ha): 0
Plant response rating, Foxtail, Giant ([5]; 125 g ai/ha): 0
Plant response rating, Foxtail, Giant ([5]; 500 g ai/ha): 0
Plant response rating, Pigweed ([6]; 125 g ai/ha): 0
Plant response rating, Pigweed ([6]; 500 g ai/ha): 0
Plant response rating, Barnyardgrass ([7]; 125 g ai/ha): 0
Plant response rating, Barnyardgrass ([7]; 500 g ai/ha): 0
Plant response rating, Kochia ([8]; 125 g ai/ha): 0
Plant response rating, Kochia ([8]; 500 g ai/ha): 0
Plant response rating, Ragweed ([9]; 125 g ai/ha): 0
Plant response rating, Ragweed ([9]; 500 g ai/ha): 0
Plant response rating, Ryegrass, Italian ([10]; 125 g ai/ha): 0
Plant response rating, Ryegrass, Italian ([10]; 500 g ai/ha): 0
Plant response rating, Foxtail, Giant ([11]; 125 g ai/ha): 0
Plant response rating, Foxtail, Giant ([11]; 500 g ai/ha): 0
Plant response rating, Wheat ([12]; 125 g ai/ha): 0
Plant response rating, Wheat ([12]; 500 g ai/ha): 0
Plant response rating, Corn ([13]; 125 g ai/ha): 0
Plant response rating, Corn ([13]; 500 g ai/ha): 0
Plant response rating, Pigweed ([14]; 125 g ai/ha): 0
Plant response rating, Pigweed ([14]; 500 g ai/ha): 0
Plant response rating, Blackgrass ([15]; 125 g ai/ha): 0
Plant response rating, Blackgrass ([15]; 500 g ai/ha): 0
Plant response rating, Galium ([16]; 125 g ai/ha): 0
Plant response rating, Galium ([16]; 500 g ai/ha): 0
Plant response rating, Barnyardgrass [17]: 0
Plant response rating, Ducksalad [18]: 40
Plant response rating, Rice [19]: 0
Plant response rating, Sedge, Umbrella [20]: 0

O=C1NCC(c2ccc(F)c(F)c2)N1C(=O)Nc1ccccc1Cl (stereo not drawn) [Compound 9]
Plant response rating, Barnyardgrass ([1]; 125 g ai/ha): 0
Plant response rating, Barnyardgrass ([1]; 500 g ai/ha): 0
Plant response rating, Kochia ([2]; 125 g ai/ha): 0
Plant response rating, Kochia ([2]; 500 g ai/ha): 0
Plant response rating, Ragweed ([3]; 125 g ai/ha): 0
Plant response rating, Ragweed ([3]; 500 g ai/ha): 0
Plant response rating, Ryegrass, Italian ([4]; 125 g ai/ha): 0
Plant response rating, Ryegrass, Italian ([4]; 500 g ai/ha): 0
Plant response rating, Foxtail, Giant ([5]; 125 g ai/ha): 0
Plant response rating, Foxtail, Giant ([5]; 500 g ai/ha): 0
Plant response rating, Pigweed ([6]; 125 g ai/ha): 0
Plant response rating, Pigweed ([6]; 500 g ai/ha): 0
Plant response rating, Barnyardgrass ([7]; 125 g ai/ha): 0
Plant response rating, Barnyardgrass ([7]; 500 g ai/ha): 0
Plant response rating, Kochia ([8]; 125 g ai/ha): 0
Plant response rating, Kochia ([8]; 500 g ai/ha): 0
Plant response rating, Ragweed ([9]; 125 g ai/ha): 0
Plant response rating, Ragweed ([9]; 500 g ai/ha): 0
Plant response rating, Ryegrass, Italian ([10]; 125 g ai/ha): 0
Plant response rating, Ryegrass, Italian ([10]; 500 g ai/ha): 0
Plant response rating, Foxtail, Giant ([11]; 125 g ai/ha): 0
Plant response rating, Foxtail, Giant ([11]; 500 g ai/ha): 0
Plant response rating, Wheat ([12]; 125 g ai/ha): 0
Plant response rating, Wheat ([12]; 500 g ai/ha): 0
Plant response rating, Corn ([13]; 125 g ai/ha): 0
Plant response rating, Corn ([13]; 500 g ai/ha): 0
Plant response rating, Pigweed ([14]; 125 g ai/ha): 0
Plant response rating, Pigweed ([14]; 500 g ai/ha): 0
Plant response rating, Blackgrass ([15]; 125 g ai/ha): 0
Plant response rating, Blackgrass ([15]; 500 g ai/ha): 0
Plant response rating, Galium ([16]; 125 g ai/ha): 0
Plant response rating, Galium ([16]; 500 g ai/ha): 0
Plant response rating, Barnyardgrass [17]: 0
Plant response rating, Ducksalad [18]: 0
Plant response rating, Rice [19]: 0
Plant response rating, Sedge, Umbrella [20]: 0

O=C1NCC(c2ccc(F)c(F)c2)N1C(=O)Nc1ccccc1C(F)(F)F (stereo not drawn) [Compound 10]
Plant response rating, Barnyardgrass ([1]; 125 g ai/ha): 0
Plant response rating, Barnyardgrass ([1]; 500 g ai/ha): 0
Plant response rating, Kochia ([2]; 125 g ai/ha): 0
Plant response rating, Kochia ([2]; 500 g ai/ha): 0
Plant response rating, Ragweed ([3]; 125 g ai/ha): 0
Plant response rating, Ragweed ([3]; 500 g ai/ha): 0
Plant response rating, Ryegrass, Italian ([4]; 125 g ai/ha): 0
Plant response rating, Ryegrass, Italian ([4]; 500 g ai/ha): 0
Plant response rating, Foxtail, Giant ([5]; 125 g ai/ha): 20
Plant response rating, Foxtail, Giant ([5]; 500 g ai/ha): 60
Plant response rating, Pigweed ([6]; 125 g ai/ha): 0
Plant response rating, Pigweed ([6]; 500 g ai/ha): 0
Plant response rating, Barnyardgrass ([7]; 125 g ai/ha): 0
Plant response rating, Barnyardgrass ([7]; 500 g ai/ha): 0
Plant response rating, Kochia ([8]; 125 g ai/ha): 0
Plant response rating, Kochia ([8]; 500 g ai/ha): 0
Plant response rating, Ragweed ([9]; 125 g ai/ha): 0
Plant response rating, Ragweed ([9]; 500 g ai/ha): 0
Plant response rating, Ryegrass, Italian ([10]; 125 g ai/ha): 0
Plant response rating, Ryegrass, Italian ([10]; 500 g ai/ha): 0
Plant response rating, Foxtail, Giant ([11]; 125 g ai/ha): 0
Plant response rating, Foxtail, Giant ([11]; 500 g ai/ha): 40
Plant response rating, Wheat ([12]; 125 g ai/ha): 0
Plant response rating, Wheat ([12]; 500 g ai/ha): 0
Plant response rating, Corn ([13]; 125 g ai/ha): 0
Plant response rating, Corn ([13]; 500 g ai/ha): 0
Plant response rating, Pigweed ([14]; 125 g ai/ha): 0
Plant response rating, Pigweed ([14]; 500 g ai/ha): 0
Plant response rating, Blackgrass ([15]; 125 g ai/ha): 0
Plant response rating, Blackgrass ([15]; 500 g ai/ha): 0
Plant response rating, Galium ([16]; 125 g ai/ha): 0
Plant response rating, Galium ([16]; 500 g ai/ha): 0
Plant response rating, Barnyardgrass [17]: 0
Plant response rating, Ducksalad [18]: 0
Plant response rating, Rice [19]: 0
Plant response rating, Sedge, Umbrella [20]: 0

From US11178873B2, “Cyclic N-carboxamide compounds useful as herbicides” (FMC CORPORATION, priority 2015, dated 2021)
